Source: patent US20250188078A1, “SMALL MOLECULE INHIBITORS OF THE CRL4 UBIQUITIN LIGASE” (Cornell University, priority 2022, published 2025)
Where “and” joins values, the source holds several entries; their conditions need not be identical. Equal entries are not always repeated. Where two headings read alike, the source gives them in different places.

Legend:
[1] = system: CUL1-dependent IκB-α degradation in Hela cells; test: TNFα-induced CUL1/SCF-dependent IκBα degradation assay (Western blot); type: cell-based; conditions: FIG. 6D
Procedure: FIG. 6D Western blotting of TNFα-induced […] IκBα degradation assay. Hela cells were seeded in 6-well plates. After 24 hours incubation, DMSO or indicated concentration of compounds were added with serum-free medium for 2 hours incubation. TNFα was added and cells were harvested, lysed in buffer containing 150 mM NaCl, 1% SDS, 10 mM Tris-HCl (pH 6.8), 1× complete protease inhibitor cocktail and 10 U Benzo nuclease. Equal amounts of proteins were resolved on 9% SDS-PAGE gel and IκBα levels were detected using anti-IκBα rabbit polyclonal antibody (Proteintech, 10268-1-AP). α-tubulin (Proteintech, #66031-1-Ig) was used as an internal loading control. TNFα-induced IκBα degradation was mediated by CUL1/SCF^βTrCP E3 ligase.

[2] = Dynamic light scattering (DLS) solubility assay; type: physicochemical; conditions: normalized intensity ratio of 25 μM compound vs DMSO, in PBS
Summary of the method: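 Compounds diluted from DMSO into PBS at final concentrations of 200 μM to 0.78 μM, in triplicate, and aggregation measured by light scattering intensity. A ratio above 2 scores insoluble (−), below 2 soluble (+), and around 2 (+/−).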

[3] = system: CUL4A^low T47D breast cancer cells; test: Cell killing in CUL4-low T47D cells (CellTiter Glo); type: cell-based; conditions: Homo sapiens, 192 h, 8 days treatment
DDB1-BPB = DDB1-BPB (Homo sapiens (Human), UniProt Q16531); test: Surface Plasmon Resonance (SPR) binding to DDB1-BPB; conditions: DDB1-BPB immobilized
DDB1-BPB, sequence (Q16531 403-706): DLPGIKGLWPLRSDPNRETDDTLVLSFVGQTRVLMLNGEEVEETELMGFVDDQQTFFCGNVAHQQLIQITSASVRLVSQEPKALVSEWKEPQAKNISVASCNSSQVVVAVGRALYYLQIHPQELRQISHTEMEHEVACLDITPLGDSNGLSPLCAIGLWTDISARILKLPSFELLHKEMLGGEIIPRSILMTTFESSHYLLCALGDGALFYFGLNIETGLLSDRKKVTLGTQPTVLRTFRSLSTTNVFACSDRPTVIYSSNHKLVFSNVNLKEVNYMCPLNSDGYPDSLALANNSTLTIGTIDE
Source text: Kd represents dissociation constant, which measures the affinity of small molecule binding to the scaffold DDB1-BPB by Surface Plasmon Resonance (SPR) (https://www.bio-rad.com/webroot/web/pdf/lsr/literature/Bulletin_6414.pdf, hereby incorporated by reference in its entirety) (see Table 1, column 8). To assess the interaction between DDB1-BPB and compounds, a multi-parametric SPR instrument (BioRad ProteON XPR360) was used. DDB1-BPB was immobilized onto the GLH sensor surface in a variety of ways as follows: flow channels were activated in parallel with 1/20 diluted EDC/SNHS. DDB1-BPB was diluted to 0.1 mg/mL in sodium acetate pH 4.5 and directly coupled onto channel for 4 min. Excess reactive esters were blocked with a 5-min injection of 1 M ethanolamine. Mean immobilization levels were 17,000 RU with <2% variation along a strip. One channel was left unmodified to provide an additional reference surface. Next, the binding kinetics of compounds on surfaces was determined in a single injection using a “one-shot” kinetic mode. Typically, compound was prepared as a twofold serial dilution (0, 3.125, 6.25, 12.5, 25, 50 μM) and injected for 60 s at […]. Dissociation was monitored for 800 s. Surfaces were regenerated with multiple 30-s pulses of 60 mM phosphoric acid so that the experiment could be reproduced. All resulting sensor grams were collected and analyzed using the ProteOn manager software.

[4] = Pharmacokinetic study: compound concentration in MDA-MB-468 xenograft tumor tissue; type: in vivo, mouse; conditions: for Tissue concentration: individual tumors
Procedure: Female athymic Nu/J nude mice, 6 weeks old were purchased from the Jackson Laboratory. Mice were housed in laminar air-flow cabinet under specific pathogen-free conditions. 5×10^6 MDA-MB-468 cells in 100 μl diluted BD Matrigel™ Basement Membrane Matrix (BD Bioscience, Matrix:PBS is 1:1) were injected subcutaneously in each flank of mouse. We detected tumors once every four days by fine calipers measurement. When tumor size reached 100 mm^3, mice were randomly grouped and treated with DMSO or 50 mg/kg PA99 compound. The stock solution of compound was 10 mg/ml, which formulated with 10% DMSO, 10% Tween-80 and 80% H2O. PA99 was injected into mouse by intraperitoneal injection ([…]) three times per week. Mouse weights and tumor volumes were measured twice/week. For the pharmacokinetic study, samples were collected after compound injection (30 mins, 1 h, 3 h, 6 h). Four tumor samples were collected at each time point for mass spectrometry analysis to determine the compound concentrations in tumor tissues.

[5] = T47D cells, read-out: EC50 CUL4-Low Cells (cell killing)

Row | Structure (SMILES) | Inhibition of TNF-α induced CUL1-dependent IκB-α degradation [1] | Solubility (DLS Assay) [2] | EC50 [3, 5] [µM] | EC50 ([3]; T47D, Table 3, 0 to 20 μM compound, read-out: EC50 OF cell killing, T47D) [µM] | Kd (DDB1-BPB) [µM] | Tissue concentration ([4]; 30 min after 50 mg/kg intraperitoneal injection) | Tissue concentration ([4]; 1 hr after 50 mg/kg intraperitoneal injection) | Tissue concentration ([4]; 3 hr after 50 mg/kg intraperitoneal injection) | Tissue concentration ([4]; 6 hr after 50 mg/kg intraperitoneal injection) | concentration at 30 min ([4]; female, athymic Nu/J nude, mouse, MDA-MB-468 xenograft tumor, intraperitoneal, 50 mg/kg, 30 min, average of four tumors) | concentration at 1 h ([4]; female, athymic Nu/J nude, mouse, MDA-MB-468 xenograft tumor, intraperitoneal, 50 mg/kg, 1 hr, average of four tumors) | concentration at 3 h ([4]; female, athymic Nu/J nude, mouse, MDA-MB-468 xenograft tumor, intraperitoneal, 50 mg/kg, 3 hr, average of four tumors) | concentration at 6 h ([4]; female, athymic Nu/J nude, mouse, MDA-MB-468 xenograft tumor, intraperitoneal, 50 mg/kg, 6 hr, average of four tumors)
1 | CN(c1ccc(-c2nc(C(=O)O)cc3c2[nH]c2ccc(F)cc23)cc1)S(=O)(=O)c1ccccc1 [PA93] | no inhibition | -(insoluble) | > 100 |  |  |  |  |  |  |  |  |  | 
2 | CN(c1ccc(-c2nc(C(=O)O)cc3c2[nH]c2cccc(F)c23)cc1)S(=O)(=O)c1ccccc1 [PA99, 5-fluoro-1-(4-(N-methylphenylsulfonamido)phenyl)-9H-pyrido[3,4-b]indole-3-carboxylic acid] | no inhibition |  | 8.27 | 8.27 | 2.13 | 3910 ng/mL and 8.2 μM and 666 ng/mL and 1.4 μM (2×) and 670 ng/mL and 1010 ng/mL and 2.1 μM | 5780 ng/mL and 12.2 μM and 1790 ng/mL and 3.8 μM and 1230 ng/mL and 2.6 μM and 870 ng/mL and 1.8 μM | 1400 ng/mL and 2.9 μM and 1340 ng/mL and 2.8 μM and 392 ng/mL and 0.8 μM and 290 ng/mL and 0.6 μM | 419 ng/mL and 0.88 μM and 342 ng/mL and 0.72 μM and 1440 ng/mL and 3.0 μM and 913 ng/mL and 1.9 μM | 1560 ng/mL and 3.3 µM | 2420 ng/mL and 5.1 µM | 856 ng/mL and 1.8 µM | 779 ng/mL and 1.6 µM
